# Data from patent US12702692B2, “Therapeutic use of calcium-activated chloride channel peptide activator” (CENTRE NATIONAL DE LA RECHERCHE SCIENTIFIQUE, priority 2020, dated 2026).
# Experiment: Tear fluid secretion in dry eye model (surgical removal of exorbital lachrymal gland)
# Format: in vivo, Sprague-Dawley rats
# Details: N13ter 10 mM topical
# Experimental: Sprague-Dawley rats (males, around 200 g) were purchased from Charles River and adapted one week before processing the experiment. Two-three rats per cage were housed in a controlled environment of 12 hours intervals of light/dark cycles and free access to food and water. Animal experiments were approved by the Animal Care and Use Committee of the University of Barcelona (CEEA) and the Departament de Territori i Sostenibilitat of Generalitat de Catalunya, Catalonia, Spain (319/19; 10935) and followed the ethical guidelines of the International Association for the Study of Pain.
# N13ter (also named Nter 13 peptide or N13) ([…] (SEQ ID NO: 2)) and scramble ([…] (SEQ ID NO: 7)) peptides were purchased from GenScript Biotech (Leiden, Netherlands) and provided by CNRS. Both peptides were dissolved in Phosphate Buffered Saline (PBS) at 10 mM and used for topical ocular application (5 ul per eye).
# Tear fluid secretion (tearing rate) was measured using phenol red threads (Zone-Quick, Menicon, Nagoya, Japan) placed on the lower eyelid for 30 s without topical anesthesia (Trost, 2007; Acosta 2013). Tearing rate was determined with an accuracy of ±0.5 mm by measurement of the length of the red portion of the thread.
# To establish a dry eye model, a similar procedure to those previously described was used (Callejo 2015, Pain; 156(3):483-495, Kovacs, 2016, Pain.; 157(2):399-417). Rats were intraperitoneally anaesthetized with ketamine/xylacine (80:10 mg/kg). […] Tear fluid secretion was measured in both eyes before (basal) and once a week at 1, 2, 3 and 4 weeks after surgery using phenol red threads (Zone-Quick, Menicon, Nagoya, Japan) placed on the lower eyelid for 30 s without topical anesthesia (Trost, 2007; Acosta 2013). Tearing rate was determined with an accuracy of ±0.5 mm by measurement of the length of the red portion of the thread. After tearing rate measurement on week 4, animals were divided in two groups and a solution containing one of the peptides (N13ter or PBS) was topically applied to the ocular surface (5 μl) and tearing rate was measured at 1, 3, 6, 12 and 24 h. […]
sequence,measurement,setting,value
LARRSPRSSDGKL (SEQ ID NO: 2) (amino acid residues between positions 30 to 42 of the human KCNE1 protein sequence) [N13ter],effect on tearing rate vs vehicle,,statistically significant compared to vehicle group
same,time to return to basal values,,≤ 24 h
same,tearing rate at 3 h (peak),"n=14 eyes, 5 weeks basal 4.04±0.49 mm",6.54±0.78 mm
